# Results published in BindingDB's records for doi:10.1124/jpet.104.066092 (Wyeth Research, 2004).
# Molecular target: Glutamate receptor ionotropic, NMDA 1 (Rattus norvegicus, UniProt P35439)
smiles,measurement,value
O=C(O)[C@@H]1C[C@H](CP(=O)(O)O)CCN1 [Selfotel],Ki,> 10 µM
